Source: patent US10106534B2 (CELGENE QUANTICEL RESEARCH, INC., priority 2014, dated 2018)

Target: JMJD2C (Homo sapiens (Human), UniProt Q9H3R0)
Test: In vitro enzyme inhibition assay for JMJD2C activity (TR-FRET)
Format: biochemical
Settings: not given
Protocol: This assay determines the ability of a test compound to inhibit JMJD2C demethylase activity. Baculovirus expressed JMJD2C (GenBank Accession #BC143571, AA 2-372) was purchased from BPS Bioscience (Cat#50105).
The ability of test compounds to inhibit the activity of JMJD2C was determined in 384-well plate format under the following reaction conditions: 0.3 nM JMJD2C, 300 nM H3K9me3-biotin labeled peptide (Anaspec cat #64360), 2 μM alpha-ketoglutaric acid in assay buffer of 50 mM HEPES, pH7.3, 0.005% Brij35, 0.5 mM TCEP, 0.2 mg/ml BSA, 50 μM sodium L-ascorbate, and 2 μM ammonium iron(II) sulfate. Reaction product was determined quantitatively by TR-FRET after the addition of detection reagent Phycolink Streptavidin-allophycocyanin (Prozyme) and Europium-anti-di-methylated histone H3 lysine 9 (H3K9me2) antibody (PerkinElmer) in the presence of 5 mM EDTA in LANCE detection buffer (PerkinElmer) at a final concentration of 50 nM and 1 nM, respectively.
The assay reaction was initiated by the following: 2 μl of the mixture of 900 nM H3K9me3-biotin labeled peptide and 6 μM alpha-ketoglutaric acid with 2 μl of 11-point serial diluted inhibitor in 3% DMSO were added to each well of the plate, followed by the addition of 2 μl of 0.9 nM JMJD2C to initiate the reaction. The reaction mixture was incubated at room temperature for 30 minutes, and terminated by the addition of 6 μl of 5 mM EDTA in LANCE detection buffer containing 100 nM Phycolink Streptavidin-allophycocyanin and 2 nM Europium-anti-H3K9me2 antibody. Plates were read by EnVisionMultilabel Reader in TR-FRET mode (excitation at 320 nm, emission at 615 nm and 665 nm) after 1 hour incubation at room temperature. A ratio was calculated (665/615) for each well and fitted to determine inhibition constant (IC50).

Sequence of JMJD2C (Q9H3R0 2-372): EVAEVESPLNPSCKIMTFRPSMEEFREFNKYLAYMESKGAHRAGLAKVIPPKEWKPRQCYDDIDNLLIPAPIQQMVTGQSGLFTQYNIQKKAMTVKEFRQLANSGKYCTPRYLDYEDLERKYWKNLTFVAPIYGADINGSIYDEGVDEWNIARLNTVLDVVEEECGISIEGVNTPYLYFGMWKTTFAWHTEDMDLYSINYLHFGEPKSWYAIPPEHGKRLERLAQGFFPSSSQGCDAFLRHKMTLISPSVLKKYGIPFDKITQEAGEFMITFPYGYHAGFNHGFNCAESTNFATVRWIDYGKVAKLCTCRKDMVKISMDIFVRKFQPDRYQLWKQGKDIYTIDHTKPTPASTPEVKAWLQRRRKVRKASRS

`O=C(O)c1ccncc1NC[C@@H]1CCCc2cc(N3CCOc4ccccc43)ccc21` [Example 108, 3-({[(1R)-6-(3,4-dihydro-2H-1,4-benzoxazin-4-yl)-1,2,3,4-tetrahydronaphthalen-1-yl]methyl}amino)pyridine-4-carboxylic acid] and `O=C(O)c1ccncc1NC[C@@H]1CCCc2cc(N3CCCCc4ccccc43)ccc21` [Example 162, 3-({[(1R)-6-(2,3,4,5-tetrahydro-1H-1-benzazepin-1-yl)-1,2,3,4-tetrahydronaphthalen-1-yl]methyl}amino)pyridine-4-carboxylic acid] fall in the same range of IC50: 1000 to 10000 nM for the first, 1000 to 10000 nM for the second.

Compared with `Cc1c(F)cccc1-c1ccc2c(c1)OCC[C@@H]2CNc1cnccc1C(=O)O` [Example 41, 3-({[(4S)-7-(3-fluoro-2-methylphenyl)-3,4-dihydro-2H-1-benzopyran-4-yl]methyl}amino)pyridine-4-carboxylic acid], `COc1cc(F)ccc1-c1ccc2c(c1)OCC[C@H]2CNc1cnccc1C(=O)O` [Example 118, 3-({[(4R)-7-(4-fluoro-2-methoxyphenyl)-3,4-dihydro-2H-1-benzopyran-4-yl]methyl}amino)pyridine-4-carboxylic acid] is lower in IC50: 1000 to 10000 nM for the first, 100 to 1000 nM for the second. The second is the more potent here.

`O=C(O)c1ccncc1NCC1CCCc2cc(Oc3ccccc3C(F)(F)F)ccc21` (stereo not drawn) [Example 62, 3-[({6-[2-(trifluoromethyl)phenoxy]-1,2,3,4-tetrahydronaphthalen-1-yl}methyl)amino]pyridine-4-carboxylic acid] and `Cc1ccccc1Oc1ccc2c(c1)CCC[C@@H]2CNc1cnccc1C(=O)O` [Example 57, 3-({[(1S)-6-(2-methylphenoxy)-1,2,3,4-tetrahydronaphthalen-1-yl]methyl}amino)pyridine-4-carboxylic acid] fall in the same range of IC50: 1000 to 10000 nM for the first, 1000 to 10000 nM for the second.

`O=C(O)c1ccncc1NC[C@H]1CCCc2cc(Sc3ccc(F)cc3)ccc21` [Example 76, 3-({[(1S)-6-[(4-fluorophenyl)sulfanyl]-1,2,3,4-tetrahydronaphthalen-1-yl]methyl}amino)pyridine-4-carboxylic acid] and `Cc1ccc(Sc2ccc3c(c2)CCC[C@@H]3CNc2cnccc2C(=O)O)cc1` [Example 78, 3-({[(1S)-6-[(4-methylphenyl)sulfanyl]-1,2,3,4-tetrahydronaphthalen-1-yl]methyl}amino)pyridine-4-carboxylic acid] fall in the same range of IC50: 1000 to 10000 nM for the first, 1000 to 10000 nM for the second.

`Cc1cccc(Sc2ccc3c(c2)CCC[C@@H]3CNc2cnccc2C(=O)O)c1` [Example 68, 3-({[(1S)-6-[(3-methylphenyl)sulfanyl]-1,2,3,4-tetrahydronaphthalen-1-yl]methyl}amino)pyridine-4-carboxylic acid] and `Cc1ccccc1Sc1ccc2c(c1)CCC[C@@H]2CNc1cnccc1C(=O)O` [Example 70, 3-({[(1S)-6-[(2-methylphenyl)sulfanyl]-1,2,3,4-tetrahydronaphthalen-1-yl]methyl}amino)pyridine-4-carboxylic acid] fall in the same range of IC50: 1000 to 10000 nM for the first, 1000 to 10000 nM for the second.

Compared with `COc1ccc(Cl)c(-c2ccc3c(c2)OCC[C@H]3CNc2cnccc2C(=O)O)c1` [Example 107, 3-({[(4R)-7-(2-chloro-5-methoxyphenyl)-3,4-dihydro-2H-1-benzopyran-4-yl]methyl}amino)pyridine-4-carboxylic acid], `O=C(O)c1ccncc1NC[C@H]1CCOc2cc(Oc3ccccc3)ccc21` [Example 47, 3-({[(4S)-7-phenoxy-3,4-dihydro-2H-1-benzopyran-4-yl]methyl}amino)pyridine-4-carboxylic acid] is higher in IC50: 100 to 1000 nM for the first, 1000 to 10000 nM for the second. The first is the more potent here.

`Cc1ccccc1Sc1ccc2c(c1)OCC[C@@H]2CNc1cnccc1C(=O)O` [Example 50, 3-({[(4S)-7-[(2-methylphenyl)sulfanyl]-3,4-dihydro-2H-1-benzopyran-4-yl]methyl}amino)pyridine-4-carboxylic acid] and `O=C(O)c1ccncc1NC[C@H]1CCCc2cc(Sc3ccccc3F)ccc21` [Example 72, 3-({[(1S)-6-[(2-fluorophenyl)sulfanyl]-1,2,3,4-tetrahydronaphthalen-1-yl]methyl}amino)pyridine-4-carboxylic acid] fall in the same range of IC50: 1000 to 10000 nM for the first, 1000 to 10000 nM for the second.

First: CCc1ccc2c(c1)CCC[C@@H]2CNc1cnccc1C(=O)O [Example 90, 3-({[(1S)-6-ethyl-1,2,3,4-tetrahydronaphthalen-1-yl]methyl}amino)pyridine-4-carboxylic acid]
Second: O=C(O)c1ccncc1NC[C@H]1CCCc2cc(OC(F)F)ccc21 [Example 60, 3-({[(1S)-6-(difluoromethoxy)-1,2,3,4-tetrahydronaphthalen-1-yl]methyl}amino)pyridine-4-carboxylic acid]
The IC50 of the first is lower: 100 to 1000 nM for the first, 1000 to 10000 nM for the second. The first is the more potent here.

`CN(c1ccc(N2CC(F)(F)C2)cc1)c1ccc2c(c1)CCC[C@H]2CNc1cnccc1C(=O)O` [Example 195, 3-({[(1R)-6-{[4-(3,3-difluoroazetidin-1-yl)phenyl](methyl)amino}-1,2,3,4-tetrahydronaphthalen-1-yl]methyl}amino)pyridine-4-carboxylic acid] and `CN(c1ccc(OC(F)(F)F)cc1)c1ccc2c(c1)CCC[C@H]2CNc1cnccc1C(=O)O` [Example 181, 3-({[(1R)-6-{methyl[4-(trifluoromethoxy)phenyl]amino}-1,2,3,4-tetrahydronaphthalen-1-yl]methyl}amino)pyridine-4-carboxylic acid] fall in the same range of IC50: 100 to 1000 nM for the first, 100 to 1000 nM for the second.

`CN(c1ccc(C(=O)C2CC2)cc1)c1ccc2c(c1)OCC[C@H]2CNc1cnccc1C(=O)O` [Example 216, 3-({[(4R)-7-[(4-cyclopropanecarbonylphenyl)(methyl)amino]-3,4-dihydro-2H-1-benzopyran-4-yl]methyl}amino)pyridine-4-carboxylic acid] and `CN(c1ccc(CC2CC2)cc1)c1ccc2c(c1)OCC[C@H]2CNc1cnccc1C(=O)O` [Example 215, 3-({[(4R)-7-{[4-(cyclopropylmethyl)phenyl](methyl)amino}-3,4-dihydro-2H-1-benzopyran-4-yl]methyl}amino)pyridine-4-carboxylic acid] fall in the same range of IC50: 100 to 1000 nM for the first, 100 to 1000 nM for the second.

Compared with `O=C(O)c1ccncc1NCC1CCCc2cc(S(=O)(=O)c3cccc(F)c3)ccc21` (stereo not drawn) [Example 87, 3-({[6-(3-fluorobenzenesulfonyl)-1,2,3,4-tetrahydronaphthalen-1-yl]methyl}amino)pyridine-4-carboxylic acid], `Cc1cccc(S(=O)(=O)c2ccc3c(c2)CCC[C@@H]3CNc2cnccc2C(=O)O)c1` [Example 85, 3-({[(1S)-6-(3-methylbenzenesulfonyl)-1,2,3,4-tetrahydronaphthalen-1-yl]methyl}amino)pyridine-4-carboxylic acid] is higher in IC50: 100 to 1000 nM for the first, 1000 to 10000 nM for the second.

`CN(c1ccc(C(F)(F)F)cc1)c1ccc2c(c1)OCC[C@H]2CNc1cnccc1C(=O)O` [Example 128, 3-({[(4R)-7-{methyl[4-(trifluoromethyl)phenyl]amino}-3,4-dihydro-2H-1-benzopyran-4-yl]methyl}amino)pyridine-4-carboxylic acid] and `Cc1cccc(N(C)c2ccc3c(c2)CCC[C@H]3CNc2cnccc2C(=O)O)c1` [Example 143, 3-({[(1R)-6-[methyl(3-methylphenyl)amino]-1,2,3,4-tetrahydronaphthalen-1-yl]methyl}amino)pyridine-4-carboxylic acid] fall in the same range of IC50: 1000 to 10000 nM for the first, 1000 to 10000 nM for the second.

`O=C(O)c1ccncc1NCC1NCCc2ccccc21` (stereo not drawn) [Example 149, 3-[(1,2,3,4-tetrahydroisoquinolin-1-ylmethyl)amino]pyridine-4-carboxylic acid] and `COc1ccc2c(c1C)CCC[C@@H]2CNc1cnccc1C(=O)O` [Example 98, 3-({[(1S)-6-methoxy-5-methyl-1,2,3,4-tetrahydronaphthalen-1-yl]methyl}amino)pyridine-4-carboxylic acid] fall in the same range of IC50: 100 to 1000 nM for the first, 100 to 1000 nM for the second.

`COc1cc2c(cc1F)[C@@H](CNc1cnccc1C(=O)O)CCC2` [Example 96, 3-({[(1S)-7-fluoro-6-methoxy-1,2,3,4-tetrahydronaphthalen-1-yl]methyl}amino)pyridine-4-carboxylic acid] and `CN(c1ccc2c(c1)CCC[C@H]2CNc1cnccc1C(=O)O)C1CCOCC1` [Example 113, 3-({[(1R)-6-[methyl(oxan-4-yl)amino]-1,2,3,4-tetrahydronaphthalen-1-yl]methyl}amino)pyridine-4-carboxylic acid] fall in the same range of IC50: 100 to 1000 nM for the first, 100 to 1000 nM for the second.

For `Cc1ccc(S(=O)(=O)c2ccc3c(c2)CCC[C@@H]3CNc2cnccc2C(=O)O)cc1` [Example 83, 3-({[(1S)-6-(4-methylbenzenesulfonyl)-1,2,3,4-tetrahydronaphthalen-1-yl]methyl}amino)pyridine-4-carboxylic acid], the IC50 was 100 to 1000 nM.

Same assay, conditions: R-enantiomer vs S-enantiomer

`O=C(O)c1ccncc1NC[C@@H]1CCOc2cc(-c3ccccc3)ccc21` [Example 84 of U.S. Pat. No. 8,952,151, 3-({[(4R)-7-phenyl-3,4-dihydro-2H-1-benzopyran-4-yl]methyl}amino)pyridine-4-carboxylic acid, reference compound] was tested, and the “fold more potent for JMJD2C than the S-enantiomer” value was “about 6 fold”.
